Data taken from publication PMC11952234, “Functional profiling of synthetic camel milk-derived peptides with implication in glucose transport and diabetes” (PLOS One, 2025).
Where two headings read alike, the source gives them in different places. Marks after values point to notes of the source that are not given here. Residues, ends and D or L forms follow the SMILES beside them.

How the values were obtained:
[1] = system: HepG2 cells; experiment: Glucose uptake assay (Glucose Uptake-Glo) in HepG2 cells; type: cell-based, human; conditions: 1 hour, 37°C; for glucose uptake, specific luminescence signal, Average: Average of Experiments 1-5, HepG2, 0.1 mg/ml peptide or 1 μM insulin, minimal data set for Figure 5; for % of glucose uptake: HepG2 cells, 0.1 mg/ml peptide or 1 μM insulin, % of insulin's response taken as 100%, mean ± SD of five independent experiments in triplicate
Experimental: Glucose uptake in HepG2 cells was carried out using Glucose Uptake-Glo Assay (Promega). For this, cells seeded in a 96-well white plate (50,000 cells/well) were first washed with PBS and starved in phenol red-, glucose-, and serum-free medium (Dulbecco’s modified Eagle’s medium containing 0.01 mM HEPES, 0.3 mg/ml glutamine, 100 IU/ml penicillin, and 100 µg/ml streptomycin). […] The treatment was removed, and the cells were washed once with PBS and then incubated with 50 μL/well of freshly prepared 2-deoxyglucose (500 μM) for 10 minutes at room temperature. The uptake process was stopped and neutralized, followed by the addition of 50 μl/well of 2-deoxyglucose-6-phosphate (2DG6P) detection reagent and incubation for 15-60 minutes at room temperature. The glucose-6-phosphate dehydrogenase (G6PDH) oxidizes 2DG6P to 6-phosphodeoxygluconate (6PDG) and reduces NADP + to NADPH. The reductase uses NADPH to convert the proluciferin to luciferin, which is then used by Ultra-Glo™ recombinant luciferase to produce luminescence. This luminescence, proportional to the amount of 2-deoxyglucose transported inside the cells upon treatment, was then measured using a 0.3–1 second integration on GloMax® Discover luminometer according to Glucose Uptake-Glo™ protocol.

[2] = system: insulin receptor (IR); insulin-induced IR-Rluc/IRS1-YFP BRET in HEK293 cells; experiment: BRET assay of IR activation, peptides combined with insulin; type: cell-based, human; conditions: for insulin-induced BRET, % of insulin's response in the vehicle, Average: Average of Experiments 1-7; for insulin-induced BRET, % of insulin's response in the vehicle, Average / insulin-induced BRET, % of insulin's response in the vehicle / % of maximal BRET (insulin-induced): 1 μM insulin + 0.1 mg/ml peptide; for insulin-induced BRET, % of insulin's response in the vehicle, Average / insulin-induced BRET, % of insulin's response in the vehicle: HEK293, minimal data set for Figure 2; for % of maximal BRET (insulin-induced) / profile on insulin-dependent BRET response in combined treatment (in words): HEK293 cells; for % of maximal BRET (insulin-induced): 1 hour, 37°C, % of insulin's response in the vehicle taken as 100%, mean ± SD of five to seven independent experiments in triplicate; for profile on insulin-dependent BRET response in combined treatment (in words): 0.1 mg/ml peptide + 1 μM insulin, compared to insulin alone (Vehicle)
Experimental: (§1) HepG2 and HEK293 cells were maintained at 37°C, 5% CO2 in complete RPMI and Dulbecco’s modified Eagle’s medium (DMEM), respectively, containing 0.3 mg/ml glutamine, 100 IU/ml penicillin, and 100 µg/ml streptomycin) supplemented with 10% fetal calf serum (Gibco, Carlsbad, CA, USA). The transient transfection in HEK293 cells was carried out in 75 cm flask containing 10^7 cells using Lipofectamine 2000 and 5 µg of IR-Rluc and 5 µg of IRS1-YFP (for BRET and phosphorylation experiments) as previously described. All assays were performed 48 hours post-transfection.
(§2) BRET technology was used for IR activation and its interaction with IRS1 as previously described. […] Following treatments, 10 μl of Coelenterazine h was added to a final concentration of 5 µ M and BRET measurements were carried out using the Tristar 2 multi-label plate reader (Berthold, Germany), allowing luminescence recording and signal integration at 480 nm and 540 nm.
For BRET, the data were normalized by taking as 100% of the maximal insulin-induced BRET signal in the vehicle and analyzed using GraphPad Prism software (San Diego, CA, USA). Statistical analyses were performed statistical significance between the different treatments and conditions as indicated in the figures and tables and their captions. […] The significance is indicated in the figures by stars (****p-value < 0.0001, ***p-value < 0.001, ** p-value < 0.01, * p-value < 0.05), and the absence of stars means non-significant (p-value > 0.05). However, the two-way ANOVA was used for multiple comparisons to determine the statistical significance between the different peptides when compared to each other in the different assays as described in the tables. In this case, the different letters indicate statistically significant effects (p-value < 0.05), while the same letters indicate no significant difference between the different treatments compared to each other.

[3] = target: T1, insulin receptor (IR); interaction of IR-Rluc with IRS1-YFP in HEK293 cells (Homo sapiens, UniProt P06213); experiment: BRET assay of IR activation (IR-Rluc/IRS1-YFP), single treatment, dose-response; type: cell-based; conditions: HEK293, 1 hour, 37°C, minimal data set for Figure 1, average
T1 construct: expressed in transfected cells; host or cells: HEK293 cells, transient co-transfection; plasmids provided by Dr. Tarik Issad (Cochin Institute, Paris)
Experimental: as §1, §2
Statistical analyses were performed statistical significance between the different treatments and conditions as indicated in the figures and tables and their captions. […] The significance is indicated in the figures by stars (****p-value < 0.0001, ***p-value < 0.001, ** p-value < 0.01, * p-value < 0.05), and the absence of stars means non-significant (p-value > 0.05). However, the two-way ANOVA was used for multiple comparisons to determine the statistical significance between the different peptides when compared to each other in the different assays as described in the tables.

[4] = HEK293, read-out: BRET, % of the maximal response of insulin, Average, peptide 0.001 mg/ml
[5] = HEK293, read-out: BRET, % of the maximal response of insulin, Average, peptide 0.005 mg/ml
[6] = HEK293, read-out: BRET, % of the maximal response of insulin, Average, peptide 0.01 mg/ml
[7] = HEK293, read-out: BRET, % of the maximal response of insulin, Average, peptide 0.05 mg/ml
[8] = HEK293, read-out: BRET, % of the maximal response of insulin, Average, peptide 0.1 mg/ml
[9] = HEK293, read-out: BRET, % of the maximal response of insulin, Average, peptide 0.5 mg/ml
[10] = HEK293, read-out: BRET, % of the maximal response of insulin, Average, peptide 1 mg/ml

T1 sequence (P06213 28-758 limits assumed): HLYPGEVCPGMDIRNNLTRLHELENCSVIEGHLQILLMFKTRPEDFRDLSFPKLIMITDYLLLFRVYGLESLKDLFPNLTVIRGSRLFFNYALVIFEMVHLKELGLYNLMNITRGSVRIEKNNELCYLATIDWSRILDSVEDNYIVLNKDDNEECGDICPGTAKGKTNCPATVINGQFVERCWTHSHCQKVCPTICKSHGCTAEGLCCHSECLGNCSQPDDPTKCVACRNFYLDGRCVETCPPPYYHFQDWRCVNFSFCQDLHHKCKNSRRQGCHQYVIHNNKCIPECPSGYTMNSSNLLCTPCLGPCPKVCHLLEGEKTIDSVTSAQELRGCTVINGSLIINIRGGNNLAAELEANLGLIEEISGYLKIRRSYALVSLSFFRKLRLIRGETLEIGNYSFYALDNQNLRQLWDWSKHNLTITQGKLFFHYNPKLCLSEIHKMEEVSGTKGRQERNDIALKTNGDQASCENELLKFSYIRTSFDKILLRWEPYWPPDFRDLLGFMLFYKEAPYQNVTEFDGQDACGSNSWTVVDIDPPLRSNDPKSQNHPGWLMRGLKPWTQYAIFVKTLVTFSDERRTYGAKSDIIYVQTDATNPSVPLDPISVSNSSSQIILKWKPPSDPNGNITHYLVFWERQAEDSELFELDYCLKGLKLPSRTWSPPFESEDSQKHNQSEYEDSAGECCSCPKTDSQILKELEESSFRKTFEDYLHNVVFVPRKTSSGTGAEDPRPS
T1 sequence (P06213 763-1382 limits assumed): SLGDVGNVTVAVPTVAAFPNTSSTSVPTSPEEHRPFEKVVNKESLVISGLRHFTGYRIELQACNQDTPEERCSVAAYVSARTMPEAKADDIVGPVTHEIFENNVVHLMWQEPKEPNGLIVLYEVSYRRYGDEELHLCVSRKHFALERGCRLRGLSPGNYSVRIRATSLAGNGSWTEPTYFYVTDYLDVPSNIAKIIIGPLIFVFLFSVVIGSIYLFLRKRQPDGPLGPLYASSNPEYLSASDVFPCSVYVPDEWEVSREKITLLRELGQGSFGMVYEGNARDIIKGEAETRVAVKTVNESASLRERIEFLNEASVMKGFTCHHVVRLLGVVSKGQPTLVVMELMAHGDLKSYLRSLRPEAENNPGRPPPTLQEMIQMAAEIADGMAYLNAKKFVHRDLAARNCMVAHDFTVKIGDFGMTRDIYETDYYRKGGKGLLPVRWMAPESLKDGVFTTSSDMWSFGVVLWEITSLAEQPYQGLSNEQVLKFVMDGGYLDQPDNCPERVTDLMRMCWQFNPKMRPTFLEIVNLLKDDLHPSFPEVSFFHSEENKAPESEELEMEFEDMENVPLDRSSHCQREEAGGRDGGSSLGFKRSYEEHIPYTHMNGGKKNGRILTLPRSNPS

Emax [3, 4] | Emax [3, 5] | Emax [3, 6] | Emax [3, 7] | Emax [3, 8] | Emax [3, 9] | Emax [3, 10] | Molecule | glucose uptake, specific luminescence signal, Average [1] | % of glucose uptake [1] | insulin-induced BRET, % of insulin's response in the vehicle, Average [2] | insulin-induced BRET, % of insulin's response in the vehicle ([2]; Experiment 1) | insulin-induced BRET, % of insulin's response in the vehicle ([2]; Experiment 2) | insulin-induced BRET, % of insulin's response in the vehicle ([2]; Experiment 3) | insulin-induced BRET, % of insulin's response in the vehicle ([2]; Experiment 4) | insulin-induced BRET, % of insulin's response in the vehicle ([2]; Experiment 5) | insulin-induced BRET, % of insulin's response in the vehicle ([2]; Experiment 6) | insulin-induced BRET, % of insulin's response in the vehicle ([2]; Experiment 7) | % of maximal BRET (insulin-induced) [2] | profile on insulin-dependent BRET response in combined treatment (in words) [2]
10.1% | 16.5% | 37.6% | 43% | 58.5% | 56.7% | 55.3% | CC(C)C[C@H](NC(=O)[C@H](Cc1ccccc1)NC(=O)[C@@H]1CCCN1C(=O)[C@H](CCCNC(=N)N)NC(=O)[C@@H](N)CC(C)C)C(=O)O [Peptide P1, LRPFL] (H-LRPFL-OH) | 1669300 | 66 ± 18^b % | 103.6 | 73.6 | 47.0 | 66.9 | 125.9 | 98.2 | 190.8 | 122.6 | 104 ± 18^a % | non-efficient
 |  |  |  |  |  |  | Human insulin [reference compound] | 2522500 | 100^a % |  |  |  |  |  |  |  |  | 100^a % | 
6% | 11% | 19.1% | 48.8% | 47.7% | 46.3% | 41.4% | CC(C)C[C@H](N)C(=O)N1CCC[C@H]1C(=O)N[C@H](C(=O)N1CCC[C@H]1C(=O)N[C@@H](CCC(N)=O)C(=O)O)C(C)C [Peptide P3, LPVPQ] (H-LPVPQ-OH; N-terminus and C-terminus assumed) | 1788200 | 71 ± 12^b % | 110.8 | 81.5 | 130.9 | 81.8 | 135.0 | 93.0 | 152.3 | 100.8 | 111 ± 11^a % | non-efficient

Molecule | Emax [3, 4] | Emax [3, 5] | Emax [3, 6] | Emax [3, 7] | Emax [3, 8] | Emax [3, 9] | Emax [3, 10] | glucose uptake, specific luminescence signal, Average [1] | % of glucose uptake [1] | insulin-induced BRET, % of insulin's response in the vehicle, Average [2] | insulin-induced BRET, % of insulin's response in the vehicle ([2]; Experiment 1) | insulin-induced BRET, % of insulin's response in the vehicle ([2]; Experiment 2) | insulin-induced BRET, % of insulin's response in the vehicle ([2]; Experiment 3) | insulin-induced BRET, % of insulin's response in the vehicle ([2]; Experiment 4) | insulin-induced BRET, % of insulin's response in the vehicle ([2]; Experiment 5) | insulin-induced BRET, % of insulin's response in the vehicle ([2]; Experiment 6) | insulin-induced BRET, % of insulin's response in the vehicle ([2]; Experiment 7) | % of maximal BRET (insulin-induced) [2] | profile on insulin-dependent BRET response in combined treatment (in words) [2]
CC[C@H](C)[C@H](NC(=O)[C@@H]1CCCN1C(=O)[C@@H](N)Cc1ccc(O)cc1)C(=O)O [Peptide P9, YPI] (H-Tyr-Pro-Ile-OH; N-terminus and C-terminus assumed) | 3.3% | 14.7% | 24.7% | 29.3% | 40.2% | 39.3% | 31.7% | 2361900 |  | 108.5 | 96.6 | 93.8 | 107.9 | 136.4 | 113.3 | 127.9 | 83.8 | 109 ± 7^a % | non-efficient
